This is an account of results in patent publication US20240327382A1 (ALMAC DISCOVERY LIMITED, priority 2021, published 2024).

A value given as a limit tells only on which side of the number the result lay.

This experiment has as its target T1, Full-length USP19 (Homo sapiens, UniProt O94966).
T1 construct: Full-length USP19 was purchased from Boston Biochem (E-576); purchased Boston Biochem E-576
T1 sequence (O94966 1-1318): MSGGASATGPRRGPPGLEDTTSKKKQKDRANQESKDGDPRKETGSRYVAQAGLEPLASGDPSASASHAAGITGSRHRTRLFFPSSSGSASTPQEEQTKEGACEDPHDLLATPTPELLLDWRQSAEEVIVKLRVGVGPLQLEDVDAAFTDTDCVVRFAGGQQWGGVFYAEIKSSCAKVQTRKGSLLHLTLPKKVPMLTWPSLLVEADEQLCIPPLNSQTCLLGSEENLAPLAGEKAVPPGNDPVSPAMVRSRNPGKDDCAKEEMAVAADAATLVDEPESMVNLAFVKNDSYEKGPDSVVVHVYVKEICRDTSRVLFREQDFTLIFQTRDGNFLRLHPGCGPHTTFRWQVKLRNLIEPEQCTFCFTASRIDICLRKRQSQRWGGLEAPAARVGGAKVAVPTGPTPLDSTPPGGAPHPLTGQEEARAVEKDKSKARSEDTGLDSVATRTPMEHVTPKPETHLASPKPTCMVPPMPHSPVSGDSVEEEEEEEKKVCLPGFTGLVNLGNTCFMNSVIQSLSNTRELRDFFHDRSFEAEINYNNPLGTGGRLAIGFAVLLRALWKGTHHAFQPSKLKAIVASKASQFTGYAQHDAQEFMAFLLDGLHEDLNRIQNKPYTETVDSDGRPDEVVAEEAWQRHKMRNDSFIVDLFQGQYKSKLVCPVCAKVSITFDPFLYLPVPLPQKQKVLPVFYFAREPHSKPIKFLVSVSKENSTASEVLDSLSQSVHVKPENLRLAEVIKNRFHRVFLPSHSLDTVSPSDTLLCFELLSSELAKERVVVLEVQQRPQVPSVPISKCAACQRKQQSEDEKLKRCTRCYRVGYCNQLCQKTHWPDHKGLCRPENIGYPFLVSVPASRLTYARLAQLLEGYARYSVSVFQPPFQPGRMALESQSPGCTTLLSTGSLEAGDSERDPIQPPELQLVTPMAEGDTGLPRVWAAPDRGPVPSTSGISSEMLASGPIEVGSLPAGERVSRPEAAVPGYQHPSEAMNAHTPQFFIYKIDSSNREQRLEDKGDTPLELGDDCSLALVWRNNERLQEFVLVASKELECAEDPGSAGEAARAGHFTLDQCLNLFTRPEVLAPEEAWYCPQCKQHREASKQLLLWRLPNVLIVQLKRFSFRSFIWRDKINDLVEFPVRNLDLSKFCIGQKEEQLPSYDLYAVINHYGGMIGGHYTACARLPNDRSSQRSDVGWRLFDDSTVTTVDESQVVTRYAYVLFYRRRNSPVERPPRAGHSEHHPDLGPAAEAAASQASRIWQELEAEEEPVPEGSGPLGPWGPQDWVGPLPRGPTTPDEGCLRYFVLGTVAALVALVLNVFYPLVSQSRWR
Description: USP19 fluorescence polarisation (FP) assay, Ubiquitin-Lys-TAMRA substrate. Particulars: average of at least two duplicate experiments. Format: biochemical. As to the method:
USP19 activity was determined in a fluorescence polarisation (FP) homogeneous assay using the isopeptide Ubiquitin-Lys-TAMRA substrate (either AUB-101, Almac Sciences Scotland Limited, or U-558, Boston Biochem, both of which gave identical results). Full-length USP19 was purchased from Boston Biochem (E-576). Unless otherwise stated, all other reagents were purchased from Sigma. Enzymatic reactions were conducted in black flat bottom polystyrene 384-well plates (Nunc) and 30 μL total volume. USP19 (2.5 nM, 10 μL) was incubated in assay buffer (50 mM HEPES (pH 7.4), 150 mM NaCl, 5 mM DTT, 0.05% BSA (w/v), 0.05% CHAPS) in the presence or absence of inhibitor (10 μL). Inhibitors were stored as 10 mM DMSO stocks in an inert environment (low humidity, dark, low oxygen, rt) using the StoragePod® system (Roylan Developments) and serial dilutions were prepared in buffer just prior to the assay (from 200 μM to 2 μM, 8-18 data point curve). Following incubation at RT for 30 min, the enzymatic reactions were initiated by dispensing the Ub substrate (500 nM, 10 μL). FP was measured every 15 min over a period of 90 min (within the linear range of the assay) using a Synergy 4 plate reader (BioTek) exciting at 530 nm and measuring the amount of parallel and perpendicular light at 575 nm. The FP signal was subsequently normalised to the no compound control. Data were plotted and fitted, and the concentrations resulting in 50% inhibition (IC50) were calculated using the non-linear regression curve fitting model using GraphPad (Prism). IC50 values for the inhibitors of the invention are compiled in Tables 1 and 3 and represent the average of at least two duplicate experiments.
In general terms: Polarisation of emitted light reports the rotation of a fluorescent probe.
In the case of `N[C@@H]1CCN(C(=O)N2CCC(Cn3cnc4c(cnn4C4CC4)c3=O)C3(CCCC3)C2)[C@H](c2ccccc2)C1` (stereo partly drawn) [Example 35, 5-((7-((2S,4R)-4-Amino-2-phenylpiperidine-1-carbonyl)-7-azaspiro[4.5]decan-10-yl)methyl)-1-cyclopropyl-1,5-dihydro-4H-pyrazolo[3,4-d] pyrimidin-4-one], the IC50 (as a rule, the concentration needed to halve the response being measured) was less than 10 nM.

`CCN[C@@H]1CCN(C(=O)N2CC[C@@H](Cn3ccc(-c4ccccc4)cc3=O)C3(CCCC3)C2)[C@H](c2ccccc2)C1` [Example 45, 1-(((R)-7-((2S,4R)-4-(Ethylamino)-2-phenylpiperidine-1-carbonyl)-7-azaspiro[4.5]decan-10-yl)methyl)-4-phenylpyridin-2(1H)-one]: the IC50 is less than 10 nM.

In the case of `CN[C@@H]1CCN(C(=O)N2CC[C@@H](CN3CCC(c4ccccc4)=CC3=O)C3(CCCC3)C2)[C@H](c2cc(F)ccc2F)C1` [Example 168, 1-(((R)-7-((2S,4R)-2-(2,5-Difluorophenyl)-4-(methylamino)piperidine-1-carbonyl)-7-azaspiro[4.5]decan-10-yl)methyl)-4-phenyl-5,6-dihydropyridin-2(1H)-one], the IC50 was less than 10 nM.

On to `CN[C@@H]1CCN(C(=O)N2CC[C@@H](Cn3ccc(Cl)cc3=O)C3(CCCC3)C2)[C@H](c2ccccc2)C1` [Example 83, 4-Chloro-1-(((R)-7-((2S,4R)-4-(methylamino)-2-phenylpiperidine-1-carbonyl)-7-azaspiro[4.5]decan-10-yl)methyl)pyridin-2(1H)-one], for which the IC50 was less than 10 nM.

Consider `Cc1ccccc1-c1ccn(C[C@@H]2CCN(C(=O)N3CC[C@@H](N)C[C@H]3c3ccccc3)CC23CCCC3)c(=O)c1` [Example 60, 1-(((R)-7-((2S,4R)-4-Amino-2-phenylpiperidine-1-carbonyl)-7-azaspiro[4.5]decan-10-yl)methyl)-4-(o-tolyl)pyridin-2(1H)-one], for which the concentration for half-maximal inhibition (IC50) is less than 10 nM.

In the case of `CN[C@@H]1CCN(C(=O)N2CC[C@@H](Cn3ccc(-c4ccccc4)cc3=O)C3(CCCC3)C2)[C@H](c2cc(F)cc(F)c2)C1` [Example 121, 1-(((R)-7-((2S,4R)-2-(3,5-Difluorophenyl)-4-(methylamino)piperidine-1-carbonyl)-7-azaspiro[4.5]decan-10-yl)methyl)-4-phenylpyridin-2(1H)-one], the half-inhibitory concentration (IC50) is less than 10 nM.

With `CN[C@@H]1CCN(C(=O)N2CC[C@](Cn3ccc(-c4ccccc4)cc3=O)(OC)C3(CCCC3)C2)[C@H](c2ccccc2)C1` [Example 58, 1-(((S)-10-Methoxy-7-((2S,4R)-4-(methylamino)-2-phenylpiperidine-1-carbonyl)-7-azaspiro[4.5]decan-10-yl)methyl)-4-phenylpyridin-2(1H)-one], the IC50 is less than 10 nM.

`COc1ccccc1-c1ccn(C[C@@H]2CCN(C(=O)N3CC[C@@H](N)C[C@H]3c3cccc(F)c3)CC23CCCC3)c(=O)c1` [Example 88, 1-(((R)-7-((2S,4R)-4-Amino-2-(3-fluorophenyl)piperidine-1-carbonyl)-7-azaspiro[4.5]decan-10-yl)methyl)-4-(2-methoxyphenyl)pyridin-2(1H)-one]: the half-maximal inhibitory concentration (IC50) is less than 10 nM.

Turning to `CN[C@@H]1CCN(C(=O)N2CC[C@@H](Cn3cnc(-c4ccccc4C)cc3=O)C3(CCCC3)C2)[C@H](c2ccc(F)cc2F)C1` [Example 137, 3-(((R)-7-((2S,4R)-2-(2,4-Difluorophenyl)-4-(methylamino)piperidine-1-carbonyl)-7-azaspiro[4.5]decan-10-yl)methyl)-6-(o-tolyl)pyrimidin-4(3H)-one], the half-maximal inhibitory concentration (IC50) was less than 10 nM.

On to `CN[C@@H]1CCN(C(=O)N2CC[C@@H](Cn3cnc(-c4ccccc4OC)cc3=O)C3(CCCC3)C2)[C@H](c2cc(F)cc(F)c2)C1` [Example 124, 3-(((R)-7-((2S,4R)-2-(3,5-Difluorophenyl)-4-(methylamino)piperidine-1-carbonyl)-7-azaspiro[4.5]decan-10-yl)methyl)-6-(2-methoxyphenyl)pyrimidin-4(3H)-one], for which the IC50 was less than 10 nM.

`CN[C@@H]1CCN(C(=O)N2CC[C@@H](Cn3cnc(-c4ccccc4)cc3=O)C3(CCCC3)C2)[C@H](c2ccccc2)C1` [Example 56, 3-(((R)-7-((2S,4R)-4-(Methylamino)-2-phenylpiperidine-1-carbonyl)-7-azaspiro[4.5]decan-10-yl)methyl)-6-phenylpyrimidin-4(3H)-one]: the IC50 was less than 10 nM.

Turning to `CN[C@@H]1CCN(C(=O)N2CC[C@@H](CN3CCC(c4ccccc4OC)=CC3=O)C3(CCCC3)C2)[C@H](c2ccc(F)cc2F)C1` (racemic) [Example 127, 1-(((R)-7-((2S,4R)-2-(2,4-Difluorophenyl)-4-(methylamino)piperidine-1-carbonyl)-7-azaspiro[4.5]decan-10-yl)methyl)-4-(2-methoxyphenyl)-5,6-dihydropyridin-2(1H)-one and 1-(((S)-7-((2S,4R)-2-(2,4-Difluorophenyl)-4-(methylamino)piperidine-1-carbonyl)-7-azaspiro[4.5]decan-10-yl)methyl)-4-(2-methoxyphenyl)-5,6-dihydropyridin-2(1H)-one], the 50% inhibitory concentration (IC50) is less than 10 nM.

For `COC(=O)CN[C@@H]1CCN(C(=O)N2CC[C@@H](Cn3cnc(-c4ccccc4)cc3=O)C3(CCCC3)C2)[C@H](c2ccccc2)C1` [Example 105, Methyl ((2S,4R)-1-((R)-10-((6-oxo-4-phenylpyrimidin-1(6H)-yl)methyl)-7-azaspiro[4.5]decane-7-carbonyl)-2-phenylpiperidin-4-yl)glycinate], the IC50 was less than 10 nM.

`N[C@@H]1CCN(C(=O)N2CC[C@@H](Cn3cnc(-c4ccccc4)cc3=O)C3(CCCC3)C2)[C@H](c2ccccc2)C1` [Example 25]: the 50% inhibitory concentration (IC50) was less than 10 nM.

Consider `CN[C@@H]1CCN(C(=O)N2CC[C@@H](Cn3ccc(Cl)cc3=O)C3(CCCC3)C2)[C@H](c2cc(F)ccc2F)C1` [Example 123, 4-Chloro-1-(((R)-7-((2S,4R)-2-(2,5-difluorophenyl)-4-(methylamino)piperidine-1-carbonyl)-7-azaspiro[4.5]decan-10-yl)methyl)pyridin-2(1H)-one], for which the half-maximal inhibitory concentration (IC50) was less than 10 nM.

As for `CN[C@@H]1CCN(C(=O)N2CC[C@@H](Cn3cnc4ccc(F)cc4c3=O)C3(CCCC3)C2)[C@H](c2cccc(F)c2)C1` [Example 167, 6-Fluoro-3-(((R)-7-((2S,4R)-2-(3-fluorophenyl)-4-(methylamino)piperidine-1-carbonyl)-7-azaspiro[4.5]decan-10-yl)methyl)quinazolin-4(3H)-one], the IC50 is less than 10 nM.

`CN[C@@H]1CCN(C(=O)N2CC[C@@H](Cn3ccc(-c4ccccc4F)cc3=O)C3(CCCC3)C2)[C@H](c2ccccc2)C1` [Example 55, 4-(2-Fluorophenyl)-1-(((R)-7-((2S,4R)-4-(methylamino)-2-phenylpiperidine-1-carbonyl)-7-azaspiro[4.5]decan-10-yl)methyl)pyridin-2(1H)-one]: the IC50 is less than 10 nM.
